Data taken from PubChem BioAssay AID1963842 (Molecular Pharmacology Branch, DTP, NCI, 2024).

Tested on: 677734-321-R-J1-PDC complex spheroid viability
Assay: Anticancer human tumor 677734-321-R-J1-PDC patient-derived soft tissue sarcoma cell line growth inhibition [POLQ]
Settings: for IC50: curve of first compound; for viability, T/C: stronger effect = lower value
Outline: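 PDC + HUVEC + MSC complex spheroids; POLQ inhibitors ± partner drugs; top conc. at/near clinical Cmax, else 10 microM (SN-38 1 microM), half-log dilutions; 37 degrees C, 5% CO2.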

[1] = second compound 0.0316 µM, first compound 0.0316 µM
[2] = second compound 0.0316 µM, first compound 0.1 µM
[3] = second compound 0.0316 µM, first compound 0.316 µM
[4] = second compound 0.0316 µM, first compound 1 µM
[5] = second compound 0.0316 µM, first compound 3.16 µM
[6] = second compound 0.0316 µM, first compound 10 µM
[7] = second compound 0.1 µM, first compound 0.0316 µM
[8] = second compound 0.1 µM, first compound 0.1 µM
[9] = second compound 0.1 µM, first compound 0.316 µM
[10] = second compound 0.1 µM, first compound 1 µM
[11] = second compound 0.1 µM, first compound 3.16 µM
[12] = second compound 0.1 µM, first compound 10 µM
[13] = second compound 0.316 µM, first compound 0.0316 µM
[14] = second compound 0.316 µM, first compound 0.1 µM
[15] = second compound 0.316 µM, first compound 0.316 µM
[16] = second compound 0.316 µM, first compound 1 µM
[17] = second compound 0.316 µM, first compound 3.16 µM
[18] = second compound 0.316 µM, first compound 10 µM
[19] = second compound 1 µM, first compound 0.0316 µM
[20] = second compound 1 µM, first compound 0.1 µM
[21] = second compound 1 µM, first compound 0.316 µM
[22] = second compound 1 µM, first compound 1 µM
[23] = second compound 1 µM, first compound 3.16 µM
[24] = second compound 1 µM, first compound 10 µM
[25] = second compound 3.16 µM, first compound 0.0316 µM
[26] = second compound 3.16 µM, first compound 0.1 µM
[27] = second compound 3.16 µM, first compound 0.316 µM
[28] = second compound 3.16 µM, first compound 1 µM
[29] = second compound 3.16 µM, first compound 3.16 µM
[30] = second compound 3.16 µM, first compound 10 µM
[31] = second compound 10 µM, first compound 0.0316 µM
[32] = second compound 10 µM, first compound 0.1 µM
[33] = second compound 10 µM, first compound 0.316 µM
[34] = second compound 10 µM, first compound 1 µM
[35] = second compound 10 µM, first compound 3.16 µM
[36] = second compound 10 µM, first compound 10 µM
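Also: spheroids exposed to compounds for one week.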
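For viability, T/C in this document: 100% = vehicle DMSO treated spheroids.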

For `COc1cccc2c1C(=O)c1c(O)c3c(c(O)c1C2=O)CC(O)(C(=O)CO)CC3OC1CC(N)C(O)C(C)O1` (centres undefined) + Nc1ccc(C#CCN(C(=O)Cc2ncc(C(F)(F)F)cc2C(F)(F)F)c2ccc(F)cc2)nn1, the IC50 (second compound 0.0316 µM) was 0.0398 µM, the IC50 (second compound 0.1 µM) was 0.0467 µM and the IC50 (second compound 0.316 µM) was 0.0444 µM. The IC50 (second compound 1 µM) was 0.0785 µM, the IC50 (second compound 3.16 µM) was 0.0406 µM and the IC50 (second compound 10 µM) was 0.041 µM. It also gave a viability, T/C [1] of 55.1%, a viability, T/C [2] of 29.5% and a viability, T/C [3] of 4.74%. For the same molecule, the viability, T/C [4] was 1.41%, the viability, T/C [5] was 1.65% and the viability, T/C [6] was 1.2%. It also gave a viability, T/C [7] of 61%, a viability, T/C [8] of 28.5% and a viability, T/C [9] of 4.99%. It also gave a viability, T/C [10] of 1.48%, a viability, T/C [11] of 1.35% and a viability, T/C [12] of 1.19%. The viability, T/C [13] was 58.5%, the viability, T/C [14] was 29.6% and the viability, T/C [15] was 6.1%. For the same molecule, the viability, T/C [16] was 0.73%, the viability, T/C [17] was 2.36% and the viability, T/C [18] was 0.63%. It also gave a viability, T/C [19] of 60%, a viability, T/C [20] of 47.3% and a viability, T/C [21] of 4.86%. For the same molecule, the viability, T/C [22] was 1.7%, the viability, T/C [23] was 1.58% and the viability, T/C [24] was 0.84%. The viability, T/C [25] was 58.1%, the viability, T/C [26] was 21.1% and the viability, T/C [27] was 4.68%. The viability, T/C [28] was 0.97%, the viability, T/C [29] was 1.23% and the viability, T/C [30] was 0.74%. It also gave a viability, T/C [31] of 57.3%, a viability, T/C [32] of 24.8% and a viability, T/C [33] of 4.54%. For the same molecule, the viability, T/C [34] was 1.86%, the viability, T/C [35] was 2.02% and the viability, T/C [36] was 0.8%.
`O=C(Nc1ccc(O)c(NS(=O)(=O)c2ccc(F)cc2)c1)c1ccc(-c2ccccc2)cc1` + COC1C(OC(N)=O)C(O)C(Oc2ccc3c(O)c(NC(=O)c4ccc(O)c(CC=C(C)C)c4)c(=O)oc3c2C)OC1(C)C was tested, and the IC50 (second compound 0.0316 µM) was 7.22 µM, the IC50 (second compound 0.1 µM) was 7.58 µM and the IC50 (second compound 0.316 µM) was 8.78 µM. It also gave an IC50 (second compound 1 µM) of 7.48 µM, an IC50 (second compound 3.16 µM) of 8.18 µM and an IC50 (second compound 10 µM) of 6.87 µM. For the same molecule, the viability, T/C [1] was 112%, the viability, T/C [2] was 100% and the viability, T/C [3] was 102%. It also gave a viability, T/C [4] of 101%, a viability, T/C [5] of 85.9% and a viability, T/C [6] of 35.6%. It also gave a viability, T/C [7] of 104%, a viability, T/C [8] of 106% and a viability, T/C [9] of 99.2%. It also gave a viability, T/C [10] of 101%, a viability, T/C [11] of 101% and a viability, T/C [12] of 33.8%. For the same molecule, the viability, T/C [13] was 111%, the viability, T/C [14] was 99.9% and the viability, T/C [15] was 104%. The viability, T/C [16] was 106%, the viability, T/C [17] was 97.9% and the viability, T/C [18] was 43.8%. It also gave a viability, T/C [19] of 108%, a viability, T/C [20] of 109% and a viability, T/C [21] of 110%. It also gave a viability, T/C [22] of 101%, a viability, T/C [23] of 92.1% and a viability, T/C [24] of 35.8%. For the same molecule, the viability, T/C [25] was 109%, the viability, T/C [26] was 101% and the viability, T/C [27] was 108%. It also gave a viability, T/C [28] of 103%, a viability, T/C [29] of 84.9% and a viability, T/C [30] of 42.7%. For the same molecule, the viability, T/C [31] was 103%, the viability, T/C [32] was 108% and the viability, T/C [33] was 102%. It also gave a viability, T/C [34] of 100%, a viability, T/C [35] of 81.7% and a viability, T/C [36] of 34.6%.
